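Assay format: 96-well plates, 48-hour exposure. At the GI50, growth is halved.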 Active and inactive are the calls of the source. Rule as the data show it: active = GI50 up to about 1.1 µM and inactive = higher.

Experimental findings from ChEMBL document CHEMBL1201862, “PubChem BioAssay data set” (2004) are described below.

Some test systems named below: SK-OV-3; UACC-257; NCI-H522; HCC 2998; DU-145; RXF 393; HCT-15; T47D; NCI-H226; SNB-19; NCI/ADR-RES; Hs-578T; SN12C; HOP-62; PC-3; HT-29; HL-60; UO-31; MOLT-4; EKVX.
What all share (test): growth of human tumour cells (NCI), 48 h

As to `CC1OC(OC2C(O[C@@H]3C[C@@H]4CC[C@@H]5[C@H](CC[C@]6(C)C7C(C[C@@H]56)O[C@]5(CC[C@@H](C)CO5)[C@H]7C)[C@@]4(C)C[C@H]3O)OC(CO)C(O)C2O)C(O)C(O)C1O` (stereo partly drawn), the GI50 is 1.89 µM (inactive) with SK-OV-3; 1.86 µM (inactive) with UACC-257; 1.89 µM (inactive) in the assay with NCI-H522; 1.82 µM (inactive) in the assay with HCC 2998; 1.84 µM (inactive) in the assay with DU-145; 2.15 µM (inactive) in the assay on RXF 393. Moreover, the GI50 with HCT-15 is 1.87 µM; in the assay with T47D it was 2.14 µM (inactive); with NCI-H226 it was 2.84 µM (inactive); in the assay on SNB-19 it was 2.41 µM (inactive); in the assay on NCI/ADR-RES it was 1.94 µM (inactive); with Hs-578T, 2.54 µM (inactive). Besides, the GI50 with SN12C was 1.71 µM (inactive); in the assay on HOP-62, 2 µM (inactive); in the assay with PC-3, 1.76 µM (inactive); with HT-29, 1.62 µM (inactive); in the assay with HL-60, 2.06 µM (inactive); in the assay with UO-31, 1.78 µM (inactive). For the same compound, the GI50 in the assay with MOLT-4 is 1.86 µM (inactive); with EKVX, 1.92 µM (inactive).

With `COC(=O)CNC(=O)CCC(C)[C@H]1CCC2C3C(C[C@H](OC(C)=O)[C@@]21C)[C@@]1(C)CCC2(C[C@H]1C[C@H]3OC(C)=O)OOC1(CCCCC1)OO2` (stereo partly drawn), the GI50 in the assay on SK-OV-3 was 12.4 µM (inactive); in the assay on UACC-257, 6.31 µM (inactive); in the assay with NCI-H522, 1.48 µM (inactive); with HCC 2998, 2 µM (inactive); in the assay on DU-145, 2.34 µM (inactive); in the assay with RXF 393 it was 1.99 µM (inactive). The GI50 was 2.7 µM in the assay with HCT-15; 2.58 µM (inactive) with T47D; 2.1 µM (inactive) in the assay with NCI-H226; 4.63 µM (inactive) in the assay with SNB-19; 2.17 µM (inactive) in the assay with NCI/ADR-RES; 2.72 µM (inactive) in the assay on Hs-578T. The GI50 was 1.59 µM (inactive) with SN12C; 0.579 µM (active) in the assay with HOP-62; 2.49 µM (inactive) in the assay with PC-3; 2.69 µM (inactive) in the assay with HT-29; 2.36 µM (inactive) in the assay with HL-60; 1.84 µM (inactive) in the assay with UO-31. Besides, the GI50 with MOLT-4 was 3.55 µM (inactive); in the assay on EKVX, 2.18 µM (inactive).

Turning to `O=C(/C=C1\Sc2ccccc2N=C1CC(=O)c1ccccc1)c1ccccc1`, the GI50 was 9.82 µM (inactive) in the assay with SK-OV-3; 97.3 µM (inactive) in the assay on UACC-257; 15.8 µM (inactive) with NCI-H522; 10.1 µM (inactive) with HCC 2998; 6.65 µM (inactive) with DU-145; 26.5 µM (inactive) in the assay on RXF 393. The GI50 in the assay on HCT-15 was 2.65 µM; in the assay on T47D, 6.98 µM (inactive); with NCI-H226 it was 7.1 µM (inactive); with SNB-19, 69.7 µM (inactive); in the assay on NCI/ADR-RES it was 4.02 µM (inactive); in the assay with Hs-578T, 44.7 µM (inactive). The GI50 in the assay with SN12C is 3.88 µM (inactive); in the assay on HOP-62 it was 2.32 µM (inactive); with PC-3 it was 8.22 µM (inactive); in the assay with HT-29, 8.49 µM (inactive); with HL-60 it was 4.89 µM (inactive); with UO-31 it was 8.49 µM (inactive). Moreover, the GI50 in the assay on MOLT-4 was 1.79 µM (inactive); with EKVX, 6.17 µM (inactive).

In the case of `CN(C)c1ccc(/C=C(/NC(=O)c2ccccc2)C(=O)Nc2ccccc2C(=O)O)cc1`, the GI50 in the assay on SK-OV-3, in the assay with UACC-257, with NCI-H522, with HCC 2998, in the assay with DU-145 and with RXF 393 was > 100 µM (inactive) each time. In addition, the GI50 in the assay on HCT-15 is more than 100 µM; in the assay with T47D, > 100 µM (inactive); in the assay with NCI-H226, > 100 µM (inactive); with SNB-19 it was > 100 µM (inactive); in the assay on NCI/ADR-RES, > 100 µM (inactive); in the assay with Hs-578T, > 100 µM (inactive). For the same compound, the GI50 in the assay with SN12C, with HOP-62, in the assay with PC-3, in the assay with HT-29, in the assay on HL-60 and in the assay with UO-31 was > 100 µM (inactive) throughout. Moreover, the GI50 in the assay with MOLT-4 and with EKVX was > 100 µM (inactive) each time.

Take `CCOC(=O)CC1(O)CCCCC1(Sc1ccc(C)cc1)Sc1ccc(C)cc1` (stereo not drawn): the GI50 was > 100 µM (inactive) in the assay on SK-OV-3; 24.1 µM (inactive) with UACC-257; 18.7 µM (inactive) in the assay on NCI-H522; 31.5 µM (inactive) in the assay with HCC 2998; 59.2 µM (inactive) in the assay with DU-145; 42.4 µM (inactive) in the assay on RXF 393. Moreover, the GI50 is 34.4 µM in the assay on HCT-15; 19.4 µM (inactive) in the assay on T47D; 34.4 µM (inactive) with NCI-H226; 81.1 µM (inactive) in the assay with SNB-19; 65.9 µM (inactive) in the assay with NCI/ADR-RES; 25.4 µM (inactive) in the assay with Hs-578T. The GI50 is 39.4 µM (inactive) in the assay on SN12C; 54.2 µM (inactive) with HOP-62; 33.3 µM (inactive) in the assay on PC-3; 32.2 µM (inactive) in the assay with HT-29; 24.7 µM (inactive) in the assay on HL-60; 41.8 µM (inactive) in the assay on UO-31. Besides, the GI50 is 24.9 µM (inactive) in the assay with MOLT-4 and 26.9 µM (inactive) in the assay on EKVX.

With `O=[N+]([O-])c1ccc2nc(Nc3ccccc3)c(Nc3ccccc3)nc2c1`, the GI50 in the assay on SK-OV-3 is 0.787 µM (active); in the assay with UACC-257, 2.15 µM (inactive); with NCI-H522, 0.369 µM (active); in the assay with HCC 2998, 1.25 µM (inactive); with DU-145, 1.77 µM (inactive); in the assay on RXF 393 it was 2.57 µM (inactive). Also, the GI50 with HCT-15 was 0.753 µM; in the assay with T47D it was 2.63 µM (inactive); in the assay with NCI-H226 it was 2.4 µM (inactive); in the assay on SNB-19 it was 1.15 µM (inactive); in the assay on NCI/ADR-RES it was 1.46 µM (inactive); in the assay with Hs-578T it was 2.65 µM (inactive). Besides, the GI50 is 1.18 µM (inactive) in the assay on SN12C; 1.19 µM (inactive) in the assay on HOP-62; 0.847 µM (active) with PC-3; 0.463 µM (active) with HT-29; 9.31 µM (inactive) in the assay with HL-60; 1.21 µM (inactive) in the assay with UO-31. The GI50 in the assay with MOLT-4 is 1.55 µM (inactive); with EKVX, 1.82 µM (inactive).

With `C=CCn1c(N)c(C#N)c(C#N)c1-c1ccccc1`, the GI50 in the assay on SK-OV-3, in the assay with UACC-257, in the assay with NCI-H522, in the assay with HCC 2998, in the assay with DU-145 and in the assay with RXF 393 was > 100 µM (inactive) throughout. Further, the GI50 in the assay with HCT-15 was more than 100 µM; in the assay on T47D, > 100 µM (inactive); in the assay with NCI-H226 it was > 100 µM (inactive); with SNB-19 it was > 100 µM (inactive); with NCI/ADR-RES, > 100 µM (inactive); in the assay with Hs-578T it was > 100 µM (inactive). Besides, the GI50 in the assay with SN12C, in the assay with HOP-62, in the assay on PC-3, with HT-29, in the assay on HL-60 and in the assay with UO-31 was > 100 µM (inactive) throughout. Also, the GI50 was > 100 µM (inactive) with MOLT-4 and 57.7 µM (inactive) with EKVX.

As to `O=c1ccn2n1CCCCC2`, the GI50 in the assay with SK-OV-3, in the assay on UACC-257, with NCI-H522, with HCC 2998, in the assay on DU-145 and in the assay with RXF 393 was > 100 µM (inactive) in each case. Further, the GI50 is more than 100 µM with HCT-15; 58.2 µM (inactive) in the assay on T47D; > 100 µM (inactive) in the assay on NCI-H226; > 100 µM (inactive) with SNB-19; > 100 µM (inactive) in the assay on NCI/ADR-RES; > 100 µM (inactive) in the assay with Hs-578T. In addition, the GI50 with SN12C, in the assay with HOP-62, in the assay on PC-3, in the assay on HT-29, with HL-60 and in the assay with UO-31 was > 100 µM (inactive) throughout. Besides, the GI50 with MOLT-4 and in the assay on EKVX was > 100 µM (inactive) each time.

Turning to `CC(=N/N=C/c1ccccn1)/C(C)=N/N=C(C)/C(C)=N/N=C(C)/C(C)=N/N=C(C)/C(C)=N\N=C\c1ccccn1`, the GI50 in the assay with SK-OV-3, in the assay with UACC-257, in the assay on NCI-H522, in the assay on HCC 2998, with DU-145 and with RXF 393 was > 100 µM (inactive) in each case. For the same compound, the GI50 in the assay with HCT-15 was more than 100 µM; with T47D it was > 100 µM (inactive); in the assay with NCI-H226, > 100 µM (inactive); with SNB-19, > 100 µM (inactive); in the assay on NCI/ADR-RES, > 100 µM (inactive); with Hs-578T it was > 100 µM (inactive). Also, the GI50 with SN12C was > 100 µM (inactive); in the assay on HOP-62, > 100 µM (inactive); in the assay with PC-3, > 100 µM (inactive); in the assay with HT-29, > 100 µM (inactive); in the assay with HL-60 it was 49.1 µM (inactive); in the assay with UO-31, > 100 µM (inactive). The GI50 in the assay on EKVX was > 100 µM (inactive).

As to `Cc1c2ncccc2cc2oc3ccccc3c(=O)c12`, the GI50 in the assay on SK-OV-3 is > 100 µM (inactive); in the assay with UACC-257, 58.5 µM (inactive); with NCI-H522, 31.5 µM (inactive); with HCC 2998 it was 60.7 µM (inactive); in the assay on DU-145, 29.2 µM (inactive); in the assay on RXF 393 it was 61.4 µM (inactive). Further, the GI50 was 41.8 µM in the assay on HCT-15; 18.1 µM (inactive) with T47D; 38.4 µM (inactive) in the assay with NCI-H226; 21.4 µM (inactive) with NCI/ADR-RES; > 100 µM (inactive) in the assay on Hs-578T; 24 µM (inactive) in the assay on SN12C. Moreover, the GI50 was 30.9 µM (inactive) in the assay on HOP-62; 75.7 µM (inactive) in the assay on PC-3; 35.6 µM (inactive) in the assay with HT-29; 34 µM (inactive) in the assay with HL-60; 7.06 µM (inactive) in the assay on UO-31; 2.94 µM (inactive) in the assay on MOLT-4. Besides, the GI50 with EKVX is 11.1 µM (inactive).
